Measurements: US10167295B2 (priority 2013, dated 2019)
“Also recorded” adds a separate entry of the source. Where a name gives a salt, the structure may show the parent alone. Read-outs that look alike come from different tables or passages of the source.

Tests used:
[1] = test system: patients with post-operative pain; settings: cited from earlier work; for analgesia in earlier clinical studies (in words): patients with post-operative pain, literature of the applicants
[2] = test system: patients with post-operative pain; test: Clinical studies of analgesia in patients with post-operative pain; format: in vivo, human; settings: for sex difference in analgesia: women vs men, post-operative pain (FIG. 8, 9)
σ2 receptor = molecular target: T1, σ2 receptor (Homo sapiens, UniProt Q5BJF2); format: binding; settings: for inhibition at 10 µM: read-out: Inhibition (%) Sigma2 (σ2)
T1 construct: MDS Pharma Services (contract laboratory that ran the assay)
T1 sequence (Q5BJF2 whole entry, species assumed): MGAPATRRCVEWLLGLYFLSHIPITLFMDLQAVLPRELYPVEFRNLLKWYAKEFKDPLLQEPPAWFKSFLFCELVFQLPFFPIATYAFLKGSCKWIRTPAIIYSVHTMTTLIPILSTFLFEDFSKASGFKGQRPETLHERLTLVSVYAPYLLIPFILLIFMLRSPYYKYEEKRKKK

NOP [3] = molecular target: T2, NOP (Homo sapiens, UniProt P41146); format: binding; design: MDS Pharma Services (contract laboratory that ran the assay); settings: for binding to the NOP receptor (in words): 10 μM; for inhibition at 10 µM: read-out: Inhibition (%) Nociceptin/orphanin F/Q (NOP)
T2 sequence (P41146 whole entry): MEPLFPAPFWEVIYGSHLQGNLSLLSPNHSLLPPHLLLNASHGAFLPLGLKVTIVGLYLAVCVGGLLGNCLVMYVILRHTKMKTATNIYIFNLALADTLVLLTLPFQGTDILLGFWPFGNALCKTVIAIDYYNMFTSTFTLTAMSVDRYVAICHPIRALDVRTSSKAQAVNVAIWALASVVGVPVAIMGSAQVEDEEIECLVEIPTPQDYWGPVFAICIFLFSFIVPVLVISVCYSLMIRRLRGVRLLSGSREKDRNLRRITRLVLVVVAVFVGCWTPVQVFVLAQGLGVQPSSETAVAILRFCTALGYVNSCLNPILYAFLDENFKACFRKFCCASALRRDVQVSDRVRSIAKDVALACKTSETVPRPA

NOP [4] = molecular target: T2, NOP; format: cell-based
KOR = KOR (Homo sapiens, UniProt P41145); test: biochemical; format: binding
Sequence of KOR (P41145 whole entry): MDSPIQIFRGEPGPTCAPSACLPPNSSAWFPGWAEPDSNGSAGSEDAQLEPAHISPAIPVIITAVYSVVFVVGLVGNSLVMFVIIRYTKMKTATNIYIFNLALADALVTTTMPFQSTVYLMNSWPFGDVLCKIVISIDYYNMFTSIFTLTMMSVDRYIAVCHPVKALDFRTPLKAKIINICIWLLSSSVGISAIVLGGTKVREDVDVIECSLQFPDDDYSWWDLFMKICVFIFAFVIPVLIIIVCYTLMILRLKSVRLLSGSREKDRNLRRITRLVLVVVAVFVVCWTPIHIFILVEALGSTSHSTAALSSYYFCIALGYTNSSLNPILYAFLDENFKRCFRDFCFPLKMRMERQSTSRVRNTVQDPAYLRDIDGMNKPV

MOR [5] = molecular target: T3, MOR (Homo sapiens, UniProt P35372); test: biochemical; format: binding
T3 sequence (P35372 whole entry): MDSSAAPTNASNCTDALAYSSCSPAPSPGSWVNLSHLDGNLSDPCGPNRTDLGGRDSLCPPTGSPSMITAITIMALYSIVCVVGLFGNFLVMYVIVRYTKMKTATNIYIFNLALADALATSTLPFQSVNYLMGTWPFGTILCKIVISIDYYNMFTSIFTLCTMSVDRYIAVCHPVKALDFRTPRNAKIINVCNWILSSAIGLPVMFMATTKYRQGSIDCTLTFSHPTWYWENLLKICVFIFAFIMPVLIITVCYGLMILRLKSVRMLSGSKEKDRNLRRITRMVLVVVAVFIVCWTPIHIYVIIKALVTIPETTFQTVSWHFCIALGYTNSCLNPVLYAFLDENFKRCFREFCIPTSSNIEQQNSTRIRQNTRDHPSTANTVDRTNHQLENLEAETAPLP

DOR [6] = molecular target: T4, DOR (Homo sapiens, UniProt P41143); test: biochemical; format: binding
T4 sequence (P41143 whole entry): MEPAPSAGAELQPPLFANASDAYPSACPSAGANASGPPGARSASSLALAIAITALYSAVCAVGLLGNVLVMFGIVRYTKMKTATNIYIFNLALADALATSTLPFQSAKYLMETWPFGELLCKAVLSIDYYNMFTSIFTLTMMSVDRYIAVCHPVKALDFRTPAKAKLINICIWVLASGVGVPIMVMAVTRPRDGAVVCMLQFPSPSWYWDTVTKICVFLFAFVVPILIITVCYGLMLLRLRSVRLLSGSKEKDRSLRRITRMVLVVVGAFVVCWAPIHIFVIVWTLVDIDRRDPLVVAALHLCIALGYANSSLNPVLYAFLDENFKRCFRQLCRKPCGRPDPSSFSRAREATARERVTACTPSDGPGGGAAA

MOR [7] = molecular target: T3, MOR; test: biochemical; format: binding; remark: listed apart in the source
DOR [8] = molecular target: T4, DOR; test: biochemical; format: binding; remark: listed apart in the source

## Oc1ccc2c3c1O[C@H]1[C@@H](O)CC[C@@]4(O)[C@@H](C2)N(CC2CCC2)CC[C@]314 [Nalbuphine, Nalbuphine hydrochloride]
[1]; men, placebo controlled study (Gear 1999)
  time by which men reported increasing pain (anti-analgesia): ~90 min
[1]
  analgesia in earlier clinical studies (in words): worse pain than those receiving placebo
[2]; hydrochloride
  sex difference in analgesia: significantly greater analgesia in females than in males
[2]; listed as nalbuphine, hydrochloride
  sex difference in analgesia: significantly great analgesia in women than in men
σ2 receptor
  inhibition at 10 µM: 15%
NOP [3]; hydrochloride
  binding to the NOP receptor (in words): binds to NOP receptors
NOP [3]
  inhibition at 10 µM: 12%

## NCC(CC(=O)O)c1ccc(Cl)cc1 (centres unmarked) [baclofen]
[1]; oral, from three days prior to surgery, pentazocine 30 mg i.v. (Gordon 1995)
  effect on the analgesic effect of pentazocine: not significantly different from that of placebo

## C=CCN1CC[C@]23c4c5ccc(O)c4O[C@H]2C(=O)CC[C@@]3(O)[C@H]1C5 [Naloxone, naloxone hydrochloride]
[1]
  analgesia in earlier clinical studies (in words): blocks anti-analgesia and produces enhanced and prolonged analgesia
[2]; naloxone 0.4 mg in combination with nalbuphine, men (FIG. 10 left)
  effect on nalbuphine anti-analgesia in males: abolished the anti-analgesic effect of nalbuphine in males resulting in significant analgesia
[2]; naloxone 0.4 mg in combination with nalbuphine, women (FIG. 10 right)
  effect on nalbuphine analgesia in females: enhanced nalbuphine analgesia in females
σ2 receptor; 10 μM
  binding to the σ2 receptor (in words): does not bind to the σ2 receptor
σ2 receptor
  inhibition at 10 µM: -2%

## O=C(CCCN1CCC(O)(c2ccc(Cl)cc2)CC1)c1ccc(F)cc1 [haloperidol]
[1]
  analgesia in earlier clinical studies (in words): enhanced the analgesic effect of nalbuphine

## CN(C(=O)/C=C/c1ccoc1)[C@@H]1CCC2(O)C3Cc4ccc(O)c5c4[C@@]2(CCN3CC2CC2)[C@H]1O5 (some centres unmarked) [compound 27035, TRK-820 HCl]
NOP [4]
  NOP Tango Agonist: 3.5
KOR
  KOR: 91
KOR; read-out: KOR mean % inhibition
  inhibition at 10 µM: 90.5%
MOR [5]
  Ki: 1.1 nM
DOR [6]
  DOR: 95
DOR [6]; read-out: DOR mean % inhibition
  inhibition at 10 µM: 95.3%
MOR [7]
  MOR: 94
MOR [7]; read-out: MOR mean % inhibition
  inhibition at 10 µM: 93.8%
DOR [8]
  Ki: 42 nM

## CN(C)CCCN1c2ccccc2Sc2ccc(Cl)cc21 [chlorpromazine]
[1]
  analgesia in earlier clinical studies (in words): enhanced the analgesic effect of nalbuphine

## Oc1ccc2c(c1)[C@@]13CCCC[C@@]1(O)[C@@H](C2)N(CC1CCC1)CC3 [Butorphanol]
[2]
  sex difference in analgesia: significantly great analgesia in women than in men; also recorded: significantly greater analgesia in females than in males

## CC(C)=CCN1CCC2(C)c3cc(O)ccc3CC1C2C.CC(O)C(=O)O (centres unmarked) [Pentazocine, Pentazocine lactate]
[2]
  sex difference in analgesia: significantly great analgesia in women than in men; also recorded: significant difference in analgesia experience by females and males
σ2 receptor
  inhibition at 10 µM: 81%
NOP [3]
  binding to the NOP receptor (in words): binds to NOP receptors
  inhibition at 10 µM: 24%
